The subject of this assay is swine adipose tissue. Kind of assay: Inhibition of lipogenesis (incorporation of radioactive carbon from glucose-U-14C into lipid) in swine adipose tissue slices. Particulars: 100 micrograms per milliliter, 37° C., 2 hours, insulin, 5% DMSO, in triplicate. It counts as cell-based. An excerpt:
The manner in which they cause this effect is not known with certainty; it is believed that they interfere with the synthesis of fatty acids in the tissues. Their effectiveness for this purpose has been ascertained by immersing samples of swine adipose tissue in a liquid medium containing radioactive glucose and the test chemical for a period of time, then isolating the lipid from the treated tissue and determining the incorporation of the radioactive carbon into lipid by means of scintillation counting techniques. These tests were conducted in swine adipose tissues because in swine, the primary site of lipogenesis--i.e., fatty acid synthesis--appears to be adipose tissue.
Described in more detail, tests were conducted according to the following general procedure:
150 milligrams of slices of swine adipose tissue were incubated at 37° C. for 2 hours with shaking in 3 milliliters of Krebs-Ringer bicarbonate solution containing one-half the normal calcium ion concentration, 60 micromoles of glucose, 0.5 micro-Curie of glucose-U^14 C, and 300 microunits of insulin, and 5% dimethyl sulfoxide (DMSO). The test compounds were added as a solution or suspension in DMSO and were present at a concentration of 100 micrograms per milliliter of the incubation mixture.
The incubation was terminated by addition of 0.25 milliliter of 1 N sulfuric acid. The resulting mixture was extracted with a total of 25 milliliters of chloroform/methanol (2:1 v/v). The extracts were washed according to Folch et al. (J. Biol. Chem. 226, 497-509, (1957)), air dried, and counted in a liquid scintillation counter with 15 milliliters of counting fluid (two parts toluene containing 0.4% w/v New England Nuclear Omnifluor/1 part Triton X-100). The tests were conducted in triplicate and were accompanied by control tests in which all ingredients,proportions and conditions were the same except that no test compound was included. From the data obtained were calculated the percent inhibition of lipid synthesis by the test compounds in each case. The data obtained from the tests are set out in Table 1, as the percent inhibition of lipogenesis compared to the results obtained in the control tests wherein only the test compound was omitted.

As to `CCOC(=O)C1COc2ccc(C(C)=NOC)cc2O1` (stereo not drawn) [Compound 3, Ethyl 2,3-dihydro-7-(1-(methoxyimino)ethyl)-1,4-benzodioxin-2-carboxylate], the “Percent Inhibition (of lipogenesis compared to control)” value (from here on “Percent Inhibition”) was 52%. As for `CCOC(=O)C1COc2ccc(C(=O)c3ccccc3)cc2O1` (stereo not drawn) [Compound 5, Ethyl 7-benzoyl-2,3-dihydro-1,4-benzodioxin-2-carboxylate], the figure is 69%; as for “Ethyl 2,3-dihydro-7(and 6)-(1-(hydroxyimino)ethyl)-1,4-benzodioxin-2-carboxylate [Compound 2]”, 94%.

As for “Ethyl 6(and 7)-(2'-methyl-4'-thiazolyl)-2,3-dihydro-1,4-benzodioxin-2-carboxylate [Compound 6]”, the “Percent Inhibition” value amounted to 79%. Take “Ethyl 6(and 7)-(acetylamino)-2,3-dihydro-1,4-benzodioxin-2-carboxylate [Compound 4]”: the “Percent Inhibition” value came to 96%. “Ethyl 7(and 6)-acetyl-2,3-dihydro-1,4-benzodioxin-2-carboxylate [Compound 1]”: the “Percent Inhibition” value turned out to be 89%.

For the origin of these results see patent US4205076A, “Lipogenesis inhibition by certain esters of substituted benzodioxincarboxylic acids” (Shell Oil Company, priority 1979, dated 1980).
